In PubChem BioAssay (NCI):
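Interpolation was linear, between the two tested concentrations surrounding the appropriate level; five concentrations were tested over 48 hours in 96-well plates. The concentration for full growth arrest is given as TGI.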

What was measured:
Test in all cases: DTP human tumour cell line panel, 48 h
EKVX NSCLC = tested on: EKVX NSCLC
NCI/ADR-RES ovarian = tested on: NCI/ADR-RES ovarian
MALME-3M melanoma = tested on: MALME-3M melanoma
HOP-92 NSCLC = tested on: HOP-92 NSCLC
BT-549 breast = tested on: BT-549 breast
HCT-116 colon = tested on: HCT-116 colon
HL-60(TB) leukemia = tested on: HL-60(TB) leukemia
SF-539 CNS = tested on: SF-539 CNS
CAKI-1 renal = tested on: CAKI-1 renal
HS 578T breast = tested on: HS 578T breast
NCI-H23 lung = tested on: NCI-H23 lung
NCI-H522 lung = tested on: NCI-H522 lung
HT29 colon = tested on: HT29 colon
KM12 colon = tested on: KM12 colon
OVCAR-4 ovarian = tested on: OVCAR-4 ovarian
UACC-257 melanoma = tested on: UACC-257 melanoma
SR leukemia = tested on: SR leukemia
MDA-N = tested on: MDA-N
A549 NSCLC = tested on: A549 NSCLC
SK-MEL-28 melanoma = tested on: SK-MEL-28 melanoma
SNB-19 CNS = tested on: SNB-19 CNS
ACHN renal = tested on: ACHN renal
A498 renal = tested on: A498 renal
786-0 renal = tested on: 786-0 renal
MDA-MB-231 breast = tested on: MDA-MB-231 breast
MDA-MB-435 = tested on: MDA-MB-435
SF-268 CNS = tested on: SF-268 CNS
NCI-H226 lung = tested on: NCI-H226 lung
U251 CNS = tested on: U251 CNS
CCRF-CEM leukemia = tested on: CCRF-CEM leukemia
SN12C renal = tested on: SN12C renal
UO-31 renal = tested on: UO-31 renal
HOP-62 NSCLC = tested on: HOP-62 NSCLC
COLO 205 colon = tested on: COLO 205 colon
RPMI-8226 leukemia = tested on: RPMI-8226 leukemia
T-47D breast = tested on: T-47D breast
SK-MEL-5 melanoma = tested on: SK-MEL-5 melanoma
OVCAR-5 ovarian = tested on: OVCAR-5 ovarian
SW-620 colon = tested on: SW-620 colon
HCT-15 colon = tested on: HCT-15 colon
OVCAR-3 ovarian = tested on: OVCAR-3 ovarian
OVCAR-8 ovarian = tested on: OVCAR-8 ovarian
DU-145 prostate = tested on: DU-145 prostate
IGROV1 ovarian = tested on: IGROV1 ovarian
PC-3 prostate = tested on: PC-3 prostate
M14 melanoma = tested on: M14 melanoma
LOX IMVI melanoma = tested on: LOX IMVI melanoma
SK-MEL-2 melanoma = tested on: SK-MEL-2 melanoma
UACC-62 melanoma = tested on: UACC-62 melanoma
MCF7 breast = tested on: MCF7 breast
SF-295 CNS = tested on: SF-295 CNS
RXF 393 renal = tested on: RXF 393 renal
TK-10 renal = tested on: TK-10 renal
MOLT-4 leukemia = tested on: MOLT-4 leukemia
NCI-H460 lung = tested on: NCI-H460 lung
K-562 leukemia = tested on: K-562 leukemia
SK-OV-3 ovarian = tested on: SK-OV-3 ovarian
HCC-2998 colon = tested on: HCC-2998 colon
SNB-75 CNS = tested on: SNB-75 CNS

In the case of `N#CC(C#N)=NNc1ccc2cn[nH]c2c1`, the TGI (EKVX NSCLC) is reported as greater than 100 µM, the TGI (NCI/ADR-RES ovarian) is reported as greater than 100 µM and the TGI (MALME-3M melanoma) is reported as 69.5 µM. The TGI (HOP-92 NSCLC) was greater than 100 µM, the TGI (BT-549 breast) was greater than 100 µM and the TGI (HCT-116 colon) was 44.7 µM. For the same molecule, the TGI (HL-60(TB) leukemia) was 45.3 µM, the TGI (SF-539 CNS) was greater than 100 µM and the TGI (CAKI-1 renal) was 96.4 µM. It also gave a TGI (HS 578T breast) greater than 100 µM, a TGI (NCI-H23 lung) of 50 µM and a TGI (NCI-H522 lung) of 34.8 µM. The TGI (HT29 colon) was greater than 100 µM, the TGI (KM12 colon) was greater than 100 µM and the TGI (OVCAR-4 ovarian) was greater than 100 µM. It also gave a TGI (UACC-257 melanoma) of 60.2 µM, a TGI (SR leukemia) of 55.5 µM and a TGI (MDA-N) greater than 100 µM. The TGI (A549 NSCLC) was greater than 100 µM, the TGI (SK-MEL-28 melanoma) was greater than 100 µM and the TGI (SNB-19 CNS) was greater than 100 µM. It also gave a TGI (ACHN renal) greater than 100 µM, a TGI (A498 renal) greater than 100 µM and a TGI (786-0 renal) greater than 100 µM. The TGI (MDA-MB-231 breast) was greater than 100 µM, the TGI (MDA-MB-435) was greater than 100 µM and the TGI (SF-268 CNS) was greater than 100 µM. For the same molecule, the TGI (NCI-H226 lung) was greater than 100 µM, the TGI (U251 CNS) was greater than 100 µM and the TGI (CCRF-CEM leukemia) was 55 µM. It also gave a TGI (SN12C renal) of 92.3 µM, a TGI (UO-31 renal) of 28.1 µM and a TGI (HOP-62 NSCLC) greater than 100 µM. For the same molecule, the TGI (COLO 205 colon) was greater than 100 µM, the TGI (RPMI-8226 leukemia) was 65.4 µM and the TGI (T-47D breast) was greater than 100 µM. For the same molecule, the TGI (SK-MEL-5 melanoma) was greater than 100 µM, the TGI (OVCAR-5 ovarian) was greater than 100 µM and the TGI (SW-620 colon) was greater than 100 µM. The TGI (HCT-15 colon) was greater than 100 µM, the TGI (OVCAR-3 ovarian) was 76.1 µM and the TGI (OVCAR-8 ovarian) was greater than 100 µM. The TGI (DU-145 prostate) was 82.9 µM, the TGI (IGROV1 ovarian) was greater than 100 µM and the TGI (PC-3 prostate) was greater than 100 µM. It also gave a TGI (M14 melanoma) greater than 100 µM, a TGI (LOX IMVI melanoma) greater than 100 µM and a TGI (SK-MEL-2 melanoma) greater than 100 µM. It also gave a TGI (UACC-62 melanoma) greater than 100 µM, a TGI (MCF7 breast) greater than 100 µM and a TGI (SF-295 CNS) greater than 100 µM. It also gave a TGI (RXF 393 renal) of 55.4 µM, a TGI (TK-10 renal) of 76.1 µM and a TGI (MOLT-4 leukemia) of 54.2 µM. The TGI (NCI-H460 lung) was greater than 100 µM, the TGI (K-562 leukemia) was greater than 100 µM and the TGI (SK-OV-3 ovarian) was greater than 100 µM.

Work on `COc1ccc2c(c1)CC[C@@H]1C2CC[C@]2(C)C(=O)N(CCN(C)C)C(=O)CC12` (stereo partly specified) yielded a TGI (EKVX NSCLC) greater than 100 µM, a TGI (MALME-3M melanoma) greater than 100 µM and a TGI (HOP-92 NSCLC) greater than 100 µM. For the same molecule, the TGI (BT-549 breast) was greater than 100 µM, the TGI (HCT-116 colon) was greater than 100 µM and the TGI (HL-60(TB) leukemia) was greater than 100 µM. It also gave a TGI (SF-539 CNS) greater than 100 µM, a TGI (CAKI-1 renal) greater than 100 µM and a TGI (HS 578T breast) greater than 100 µM. It also gave a TGI (NCI-H23 lung) greater than 100 µM, a TGI (NCI-H522 lung) greater than 100 µM and a TGI (HT29 colon) greater than 100 µM. It also gave a TGI (KM12 colon) greater than 100 µM, a TGI (OVCAR-4 ovarian) greater than 100 µM and a TGI (UACC-257 melanoma) greater than 100 µM. For the same molecule, the TGI (HCC-2998 colon) was greater than 100 µM, the TGI (SR leukemia) was greater than 100 µM and the TGI (MDA-N) was greater than 100 µM. It also gave a TGI (A549 NSCLC) greater than 100 µM, a TGI (SK-MEL-28 melanoma) greater than 100 µM and a TGI (SNB-19 CNS) greater than 100 µM. It also gave a TGI (ACHN renal) greater than 100 µM, a TGI (A498 renal) greater than 100 µM and a TGI (786-0 renal) greater than 100 µM. For the same molecule, the TGI (MDA-MB-231 breast) was greater than 100 µM, the TGI (MDA-MB-435) was greater than 100 µM and the TGI (SF-268 CNS) was greater than 100 µM. It also gave a TGI (NCI-H226 lung) greater than 100 µM, a TGI (U251 CNS) greater than 100 µM and a TGI (CCRF-CEM leukemia) greater than 100 µM. It also gave a TGI (SN12C renal) greater than 100 µM, a TGI (UO-31 renal) greater than 100 µM and a TGI (HOP-62 NSCLC) greater than 100 µM. It also gave a TGI (COLO 205 colon) greater than 100 µM, a TGI (T-47D breast) greater than 100 µM and a TGI (SK-MEL-5 melanoma) greater than 100 µM. It also gave a TGI (OVCAR-5 ovarian) greater than 100 µM, a TGI (SW-620 colon) greater than 100 µM and a TGI (OVCAR-3 ovarian) greater than 100 µM. It also gave a TGI (OVCAR-8 ovarian) greater than 100 µM, a TGI (DU-145 prostate) greater than 100 µM and a TGI (IGROV1 ovarian) greater than 100 µM. The TGI (PC-3 prostate) was greater than 100 µM, the TGI (M14 melanoma) was greater than 100 µM and the TGI (UACC-62 melanoma) was greater than 100 µM. The TGI (MCF7 breast) was greater than 100 µM, the TGI (SF-295 CNS) was greater than 100 µM and the TGI (SNB-75 CNS) was greater than 100 µM. For the same molecule, the TGI (RXF 393 renal) was greater than 100 µM, the TGI (TK-10 renal) was greater than 100 µM and the TGI (MOLT-4 leukemia) was greater than 100 µM. The TGI (NCI-H460 lung) was greater than 100 µM, the TGI (K-562 leukemia) was greater than 100 µM and the TGI (SK-OV-3 ovarian) was greater than 100 µM.
